Experimental findings from patent US9439904B2, “Pyrimidine compounds and their use as gamma secretase modulators” (Acturum Life Science AB, priority 2013, dated 2016) are described below.

Structures are written as SMILES.

Assay [1] deals with Aβ42. As to the kind of experiment: HEK assay: Aβ42 secreted to cell medium, Meso Scale Discovery electrochemiluminescence. In kind it is cell-based. The following applies: Homo sapiens, HEK293; HEK cell line stably expressing APPswe; 4-6 hours incubation with test compound; read-out: pIC50 Aβ42 HEK assay (converted). As for the experimental part:
Compounds were diluted in 100% DMSO and stored at […] prior to use. Human Embryonic Kidney (HEK) cell line stably expressing APP with the Swedish mutation (APPswe) was cultured using Dulbecco's Modified Eagles medium (DMEM) supplied with […] glucose, Na-pyruvate and GlutaMAX, 10% Foetal bovine serum, 100 U/mL penicillin-streptomycin (PEST), 1× non-essential amino acids (NEAA), […] Hepes, 100 μg/mL Zeocine. Cells at about 80% confluence were washed with PBS, detached from culture flasks using 1× Trypsin/EDTA diluted in PBS, re-suspended in cell media and plated in 384-well poly-d-lysine coated cell culture plates at about 10000-15000 cells/well, in 25 μL cell media. Optionally, cryo-preserved cells (frozen and stored at −140° C. in 90% cell media and 10% DMSO) were thawed, washed and plated as above. Next the cells were incubated for 15-24 h at 37° C. and 5% CO2, after which cell medium was changed. Fresh medium containing test compound diluted ×200 from prepared compound plate was added to the cells before further incubation for 4-6 hours at 37° C. and 5% CO2. After incubation with test compound the amount of Aβ peptides, including Aβ42, Aβ40, Aβ39, Aβ38 and Aβ37, secreted to cell medium was analyzed using the electrochemiluminescence assay technology from Meso Scale Discovery Technology, in combination with specific antibodies raised against the different Aβ peptides. Potential cytotoxic effects of the compounds were assayed by measuring the ATP content (ViaLight) from cell lysate.

Assay [2] has as its system Aβ42. The assay is described as follows: PCN assay: Aβ42 secreted by primary cortical neuronal cells, ELISA. It is filed as cell-based. The following applies: primary cortical neuronal cells from 16-day mouse embryos; 16-20 hours incubation with test compound; read-out: pIC50 Aβ42 PCN assay (converted). The method, then: Compounds were diluted in 100% DMSO and stored at […] prior to use. Primary cortical neuronal cells (PCN) were isolated from 16-day mouse embryos and cultured in Ham's F12 media containing 10% Foetal bovine serum, 10 mM Hepes, 2 mM L-glutamine and 100 U/mL Penicillin-Streptomycin. 150000-250000 cells/well, in 200 μL cell media were seeded onto 96-well poly-D-Lysine coated plates. After incubation at 37° C., 5% CO2 for five days, the media was exchanged for fresh medium containing test compound diluted ×100, before further incubation for 16-20 hours at 37° C. and 5% CO2. After incubation with test compound the amount of […] secreted to cell medium was analyzed using the solid phase sandwich Enzyme-Linked-Immuno-Sorbent Assay (ELISA)-kit from Invitrogen for detection of mouse βAmyloid 1-42. Potential cytotoxic effects of the compounds were assayed by measuring the ATP content (Via Light) from cell lysate.
(In general: In an ELISA, binding on a coated surface is turned into a signal by an enzyme label.)

On to `COc1cc(Nc2nc(C(C)OCC(F)(F)F)cc(C(C)(C)O)n2)ccc1-n1cnc(C)c1` (stereo not shown) [Example 11, 2-(2-(3-Methoxy-4-(4-methyl-1H-imidazol-1-yl)phenylamino)-6-(1-(2,2,2-trifluoroethoxy)ethyl)pyrimidin-4-yl)propan-2-ol], for which the IC50 is 0.0251 µM in assay [1] and 0.0501 µM in assay [2].
In the same order, the values of `COc1cc(Nc2nc(COCC(F)(F)F)cc(CN3CC(F)C3)n2)ccc1-c1cnnc(C)c1` [Example 42, 4-((3-Fluoroazetidin-1-yl)methyl)-N-(3-methoxy-4-(6-methylpyridazin-4-yl)phenyl)-6-((2,2,2-trifluoroethoxy)methyl)pyrimidin-2-amine] are 0.0794 µM and 0.251 µM.
On to `COc1cc(Nc2nc(COCC(F)(F)F)cc(NCC3CC3)n2)ccc1-n1cnc(C)c1` [Example 33, N^4-(Cyclopropylmethyl)-N^2-(3-methoxy-4-(4-methyl-1H-imidazol-1-yl)phenyl)-6-((2,2,2-trifluoroethoxy)methyl)pyrimidine-2,4-diamine], for which the IC50 in assay [1] was 0.0398 µM; in assay [2], 0.0501 µM.
`COc1cc(Nc2nc(COCC(F)(F)F)cc(NC(C)C)n2)ccc1-c1cnnc(C)c1` [Example 23, N^4-Isopropyl-N^2-(3-methoxy-4-(6-methylpyridazin-4-yl)phenyl)-6-((2,2,2-trifluoroethoxy)-methyl)pyrimidine-2,4-diamine]: the IC50 in assay [1] and in assay [2] was 0.0794 µM throughout.
In the case of `COc1cc(Nc2nc(COCC(F)(F)F)cc(OCC3CC3)n2)ccc1-n1cnc(C)c1` [Example 51, 4-(Cyclopropylmethoxy)-N-[3-methoxy-4-(4-methyl-1H-imidazol-1-yl)phenyl]-6-[(2,2,2-trifluoroethoxy)methyl]pyrimidin-2-amine], the IC50 in assay [1] was 0.0631 µM; in assay [2] it was 0.126 µM.
For `COc1cc(Nc2nc(COCC(F)(F)F)cc(NCCC#N)n2)ccc1-n1cnc(C)c1` [Example 38, 3-(2-(3-Methoxy-4-(4-methyl-1H-imidazol-1-yl)phenylamino)-6-((2,2,2-trifluoroethoxy)-methyl)pyrimidin-4-ylamino)propanenitrile], the IC50 in assay [1] is 0.0501 µM; in assay [2] it was 0.0398 µM.
In the case of `COc1cc(Nc2nc(COCC(F)(F)F)cc(C(O)C3CC3)n2)ccc1-n1cnc(C)c1` (stereo not shown) [Example 28, Cyclopropyl(2-(3-methoxy-4-(4-methyl-1H-imidazol-1-yl)phenylamino)-6-((2,2,2-trifluoroethoxy)methyl)pyrimidin-4-yl)methanol], the IC50 in assay [1] is 0.0398 µM; in assay [2], 0.1 µM.
Take `COc1cc(Nc2nc(COCC(F)(F)F)cc(C(O)C(F)(F)F)n2)ccc1-n1cnc(C)c1` (stereo not shown) [Example 12, 2,2,2-Trifluoro-1-(2-(3-methoxy-4-(4-methyl-1H-imidazol-1-yl)phenylamino)-6-((2,2,2-trifluoroethoxy)methyl)pyrimidin-4-yl)ethanol]: the IC50 in assay [1] is 0.0794 µM; in assay [2] it was 0.0398 µM.
In the same order, the values of `COc1cc(Nc2nc(COCC3CC3)cc(COCC(F)(F)F)n2)ccc1-n1cnc(C)c1` [Example 16, 4-((Cyclopropylmethoxy)methyl)-N-(3-methoxy-4-(4-methyl-1H-imidazol-1-yl)phenyl)-6-((2,2,2-trifluoroethoxy)methyl)pyrimidin-2-amine] are 0.0501 µM and 0.0794 µM.
In the same order, the values of `COc1cc(Nc2nc(COCC(F)(F)F)cc(N3CCC3)n2)ccc1-c1cnnc(C)c1` [Example 21, 4-(Azetidin-1-yl)-N-(3-methoxy-4-(6-methylpyridazin-4-yl)phenyl)-6-((2,2,2-trifluoroethoxy)methyl)pyrimidin-2-amine] are 0.126 µM and 0.0501 µM.
On to `COc1cc(Nc2nc(COCC(F)(F)F)cc(C(C)(C)O)n2)ccc1-c1cnnc(C)c1` [Example 47, 2-(2-(3-Methoxy-4-(6-methylpyridazin-4-yl)phenylamino)-6-((2,2,2-trifluoroethoxy)-methyl)pyrimidin-4-yl)propan-2-ol], for which the IC50 was 0.0501 µM in assay [1] and 0.1 µM in assay [2].
In the same order, the values of `COc1cc(Nc2nc(COCC(F)(F)F)cc(C(C)O)n2)ccc1-n1cnc(C)c1` (stereo not shown) [Example 44, 1-(2-(3-Methoxy-4-(4-methyl-1H-imidazol-1-yl)phenylamino)-6-((2,2,2-trifluoroethoxy)-methyl)pyrimidin-4-yl)ethanol] are 0.0501 µM and 0.1 µM.
As for `COc1cc(Nc2nc(C(C)O)cc(C(C)OCC(F)(F)F)n2)ccc1-n1cnc(C)c1` (stereo not shown) [Example 7, 1-(2-(3-Methoxy-4-(4-methyl-1H-imidazol-1-yl)phenylamino)-6-(1-(2,2,2-trifluoroethoxy)-ethyl)pyrimidin-4-yl)ethanol], the IC50 in assay [1] and in assay [2] was 0.0316 µM in each case.
Regarding `COc1cc(Nc2nc(COCC(F)(F)F)cc(NC3CC3)n2)ccc1-n1cnc(C)c1` [Example 34, N^4-Cyclopropyl-N^2-(3-methoxy-4-(4-methyl-1H-imidazol-1-yl)phenyl)-6-((2,2,2-trifluoroethoxy)methyl)pyrimidine-2,4-diamine], the IC50 was 0.0501 µM in assay [1] and 0.1 µM in assay [2].
With `CNc1nc(Nc2ccc(-n3cnc(C)c3)c(OC)c2)nc(COCC(F)(F)F)c1C` [Example 4, N^2-(3-Methoxy-4-(4-methyl-1H-imidazol-1-yl)phenyl)-N^4,5-dimethyl-6-((2,2,2-trifluoroethoxy)methyl)pyrimidine-2,4-diamine], the IC50 in assay [1] is 0.0251 µM; in assay [2] it was 0.01 µM.
Regarding `COc1cc(Nc2nc(COCC(F)(F)F)c(C)c(C(C)(C)O)n2)ccc1-n1cnc(C)c1` [Example 5, 2-(2-(3-Methoxy-4-(4-methyl-1H-imidazol-1-yl)phenylamino)-5-methyl-6-((2,2,2-trifluoroethoxy)methyl)pyrimidin-4-yl)propan-2-ol], the IC50 in assay [1] and in assay [2] was 0.02 µM in each case.
As to `COc1cc(Nc2nc(COCC(F)(F)F)cc(C(C)(C)O)n2)ccc1-n1cnc(C)c1` [Example 15, 2-(2-(3-Methoxy-4-(4-methyl-1H-imidazol-1-yl)phenylamino)-6-((2,2,2-trifluoroethoxy)-methyl)pyrimidin-4-yl)propan-2-ol], the IC50 in assay [1] is 0.0316 µM; in assay [2], 0.0501 µM.
In the case of `COc1cc(Nc2nc(COCC(F)(F)F)cc(C(C)(C)O)n2)ccc1-c1cnc(C)o1` [Example 46, 2-(2-(3-Methoxy-4-(2-methyloxazol-5-yl)phenylamino)-6-((2,2,2-trifluoroethoxy)methyl)-pyrimidin-4-yl)propan-2-ol], the results for the IC50 in assay [1] and in assay [2] were 0.0398 µM and 0.0794 µM, respectively.
In the case of `COc1cc(Nc2nc(COCC(F)(F)F)cc(N(C)Cc3ccccc3)n2)ccc1-n1cnc(C)c1` [Example 25, N^4-Benzyl-N^2-(3-methoxy-4-(4-methyl-1H-imidazol-1-yl)phenyl)-N^4-methyl-6-((2,2,2-trifluoroethoxy)methyl)pyrimidine-2,4-diamine], the IC50 in assay [1] was 0.0251 µM; in assay [2], 0.0501 µM.
For the compound `COc1cc(Nc2nc(COCC(F)(F)F)cc(C(C)N3CC(F)C3)n2)ccc1-n1cnc(C)c1` (stereo not shown) [Example 43, 4-(1-(3-Fluoroazetidin-1-yl)ethyl)-N-(3-methoxy-4-(4-methyl-1H-imidazol-1-yl)phenyl)-6-((2,2,2-trifluoroethoxy)methyl)pyrimidin-2-amine], the figures for the IC50 in assay [1] and in assay [2] were 0.0316 µM and 0.158 µM, respectively.
Turning to `COc1cc(Nc2nc(COCC(F)(F)F)c(C)c(C(C)O)n2)ccc1-n1cnc(C)c1` (stereo not shown) [Example 6, 1-(2-(3-Methoxy-4-(4-methyl-1H-imidazol-1-yl)phenylamino)-5-methyl-6-((2,2,2-trifluoroethoxy)methyl)pyrimidin-4-yl)ethanol], the IC50 in assay [1] and in assay [2] was 0.0316 µM each time.
Turning to `COc1cc(Nc2nc(COCC(F)(F)F)cc(N3CCC(F)(F)CC3)n2)ccc1-c1cnnc(C)c1` [Example 22, 4-(4,4-Difluoropiperidin-1-yl)-N-(3-methoxy-4-(6-methylpyridazin-4-yl)phenyl)-6-((2,2,2-trifluoroethoxy)methyl)pyrimidin-2-amine], the IC50 in assay [1] was 0.0794 µM; in assay [2], 0.0631 µM.
In the same order, the values of `COc1cc(Nc2nc(COC(CF)CF)cc(C(C)(C)O)n2)ccc1-n1cnc(C)c1` [Example 50, 2-(6-((1,3-Difluoropropan-2-yloxy)methyl)-2-(3-methoxy-4-(4-methyl-1H-imidazol-1-yl)phenylamino)pyrimidin-4-yl)propan-2-ol] are 0.0794 µM and 0.0631 µM.
